# Test: gradient 5% acetonitrile 3 min, to 50% in 2 min, to 85% in 15 min, held 3 min, 100 µL/min
# Conditions: column: Zorbax Extend-C18 2.1 x 50 mm; eluents: water / acetonitrile, 0.1% formic acid
# Outline: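 Retention times of pure standards were taken from adduct peaks that were selected by computer and manually inspected. Over 3 months, mixtures of ~100 molecules were run by HPLC–quadrupole time-of-flight mass spectrometry in positive and negative ionization mode. The Zorbax Extend-C18 column (2.1 × 50 mm, 1.8 μm) ran at 100 μL/min in water and acetonitrile, each containing 0.1% formic acid, with 40 μL dead volume and 900 μL dwell volume.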
row,SMILES,RP-LC retention time
1,COc1cccc(CNC(=O)c2cc(NC(C)=O)cc3nc(C)ccc23)c1OC,594 s
2,O=C(O)CCCC(=O)Nc1nc(-c2cccc3ccccc23)cs1,818 s
3,COCc1nc2c(N)cccn2n1,569 s
4,Cc1ccc(S(=O)(=O)NCc2c(-c3ccccc3)nc3sc(C)nn23)cc1,858 s
5,CCCC[C@@]1(C2CCCC2)Cc2cc(OCC(=O)O)c(Cl)c(Cl)c2C1=O,1320 s
6,CCn1cc(-c2nc(C)c(C(=O)NCc3cccnc3)s2)c2cccnc21,629 s
7,CCC(=O)N1CCCC(c2nc(CNC(=O)C(C)C)cs2)C1 (stereo not given),632 s
8,COCCNC(=O)c1cc(-c2ccccn2)nc2ccccc12,650 s
9,CCN1C(=O)C(C)(C(=O)Nc2ccccc2F)Oc2cccnc21 (stereo not given),855 s
10,Cc1ccc2c(Nc3ccc(F)c(Cl)c3)c(-c3nc(C)no3)cnc2n1,804 s
11,O=S(=O)(NCc1cccnc1)c1ccc(Cl)cc1,566 s
12,O=C(O)CCC1CCN(S(=O)(=O)c2ccccc2)CC1,739 s
13,COc1ccc(S(=O)(=O)N2CCc3nn(C)c(=O)n3CC2)cc1Cl,710 s
14,COCCCNC(=O)c1c(OCC2CC2)cc(=O)n2c1CCCCC2,611 s
15,CCCCC(=O)Nc1cnc(N(CC)CC(=O)C(C)(C)C)c(C(=O)O)c1,628 s
16,CS(=O)(=O)N1CCCC(c2nnc(-c3ccccc3F)s2)C1 (stereo not given),757 s
17,O=S(=O)(Nc1ccc(F)cc1)c1cccnc1Nc1ccc(F)c(F)c1,1080 s
18,Cn1nccc1-c1cccc(-c2noc(-c3ccccc3)n2)c1,1120 s
19,CCc1ccc2nc(C)cc(C(N)=O)c2c1,561 s
20,Cc1ccc(C)c(NC(=O)N(C)CCc2noc(COc3ccccc3F)n2)c1,919 s
21,Cc1ccc(NC(=O)C(C)Oc2cc(C(F)(F)F)c3c(C)nn(C)c3n2)c(C)c1 (stereo not given),920 s
22,CCCCSc1cc(=O)[nH]c(N)n1,700 s
23,CN1CC[C@]2(c3cccc(O)c3)Cc3nc4ccccc4cc3C[C@H]2C1,572 s

row,SMILES,RP-LC retention time
1,CC(=O)c1ccc(N2CCN(C(=O)C(=O)c3cccn3C)CC2)cc1,735 s
2,COc1ccc(CC(=O)NCc2c(C)cc(C)nc2-c2ccc(OC)cc2)cc1,708 s
3,CN(C)C(=O)[C@H](O)[C@H](Cc1ccccc1)NC(=O)c1cc2cc(Cl)ccc2[nH]1,956 s
4,O=C(NCCN1CCN(C(=O)NC(c2ccccc2)c2ccccc2)CC1)c1ccsc1,605 s
5,COc1ccc2c(CCNC(=O)CCc3ccccc3)c[nH]c2c1,796 s
6,CCCn1nc(CNC(=O)COc2ccccc2)c2ccccc21,900 s
7,CCC(C)N(CCNC(=O)Cn1c(=O)oc2ccccc21)Cc1ccco1 (stereo not given),631 s
8,COCCn1ccc2nc(C)c(C(=O)NCCc3c[nH]c4ccccc34)cc2c1=O,767 s
9,COCC(C)(O)CNS(=O)(=O)Cc1cccc(F)c1 (stereo not given),641 s
10,CCc1nn2c(CNC(=O)c3ccc(C)c(C)c3)c(-c3ccccc3)nc2s1,983 s
11,C=CCN1C(=O)COc2ccc(-c3nc(NC(=O)C(F)(F)F)sc3C)cc21,932 s
12,COCCN1C(=O)[C@H]2CN(Cc3ccc(C)c(C)c3)C[C@H]2C1=O,577 s
13,COc1ccc2c(c1)C1(CCN(C(=O)c3cccc(C)c3)C1)C(=O)N2C (stereo not given),823 s
14,Brc1ccc(OCc2nnc3sc(-c4ccccc4)nn23)cc1,1050 s
15,Cc1nc2cc(-c3noc(-c4cccc(Br)c4)n3)ccc2n(C)c1=O,1170 s
16,Cc1ccc(Oc2ccc(NS(=O)(=O)c3cccs3)cc2)nn1,687 s
17,CCOc1ccc(-c2nc(Cn3nnc(C(=O)NCc4ccc(OC)cc4)c3N)c(C)o2)cc1OC,922 s
18,CS(=O)(=O)N1CCCC(C(=O)NC2CCCCC2)CCNC(=O)CC1 (stereo not given),633 s
19,CCOc1ccc(N2C(=O)CN(CCc3ccccc3F)[C@H]3CS(=O)(=O)C[C@H]32)cc1,840 s
20,COc1ccc(-c2noc(-c3nc(-c4cccnc4)no3)n2)cc1,966 s
21,CCCn1ccc2sc(C)c(C(=O)NCc3cccc(OCC)c3)c2c1=O,939 s
22,CN(C)C(=O)c1cn(C2CN(C(=O)CCc3c[nH]c4ccccc34)C2)nn1,652 s
23,COc1ccc(OCc2nc(-c3cccc(-c4csc(C5CC5)n4)c3)no2)cc1,1300 s

# More lines, now with the values ahead:
row,RP-LC retention time,SMILES
1,739 s,O=C(c1nnc(-c2ccc(S(=O)(=O)N3CCCC3)cc2)o1)N1CCOCC1
2,563 s,CN1C(=O)C2CCCCN2c2ccc(C(=O)NCc3ccc4c(c3)OCO4)cc21 (stereo not given)
3,657 s,O=C(c1ccco1)N1CCN(C(=O)C2CCCN(c3ncnc4c3nc3n4CCCCC3)C2)CC1 (stereo not given)
4,570 s,CCn1cnc(S(=O)(=O)N2CCC(C(=O)Nc3ncccc3C)CC2)c1
5,795 s,O=C(Nc1ccc2c(c1)OCCO2)c1cn(-c2cc(N3CCCC3)ncn2)cn1
6,759 s,O=C(Nc1nnc(C2=COCCO2)o1)c1cc2cc([N+](=O)[O-])ccc2s1
7,990 s,CC1Oc2ccc(-c3csc(NC(=O)c4ccc(Br)cc4)n3)cc2NC1=O (stereo not given)
8,1040 s,COc1ccc(Cl)cc1NC(=O)N1CCCC(c2nnc(-c3ccccc3F)s2)C1 (stereo not given)
9,675 s,c1ccc(N2CCN(c3nnc(-n4cccc4CN4CCN(c5ccccn5)CC4)s3)CC2)cc1
10,940 s,Cc1nc(-c2cn(C)c3ncccc23)sc1C(=O)Nc1ccc(F)cc1F
11,819 s,Cc1cccc(NC(=O)Cn2nc(C(=O)N3CCOCC3)c3ccccc32)c1C
12,828 s,COCCNC(=O)COc1cc(C)nc(-c2ccc(Cl)cc2)n1
13,1190 s,COC(=O)c1cnc(N2CCN(c3ccc(F)cc3)CC2)c2ccccc12
14,728 s,COC(=O)c1ccc2c(=O)n(-c3ccc(C)cc3)c(N3CCN(c4ccccn4)CC3)nc2c1
15,997 s,CCOc1ccc(C(=O)n2nc(C)c(S(=O)(=O)N3CCCCC3)c2C)cc1
16,756 s,O=C(Cn1nc2n(c1=O)CCCCC2)NCc1ccc2c(c1)OCO2
17,1340 s,CCc1cccc(NC(=O)c2cc3sccc3n2Cc2ccc(Cl)cc2)c1
18,963 s,COc1ccc(-c2cc3nn(CC(=O)Nc4ccc(C)cc4F)c(=O)n3c(C)n2)cc1
19,718 s,COCCn1cc(CCNC(=O)Nc2ccc(C)cc2)c2cccnc21
20,1090 s,Cn1c(C(=O)N2CCN(c3cccc(Cl)c3)CC2)cc2sccc21
21,788 s,CCn1cnc2ccc(-c3noc(-c4cccc(OC)c4)n3)cc21
22,774 s,CCN(CC)CCNC(=O)c1nn(-c2ccc(Cl)cc2)c2c1CCc1cc(OC)ccc1-2

row,RP-LC retention time,SMILES
1,580 s,O=C(c1ccc2ncnc(N3CCCC3)c2c1)N1CCCC1
2,773 s,Cc1ccc(Cl)cc1NC(=O)N1CC=C(c2cn(C)c3ncccc23)CC1
3,1070 s,COc1cc(Cl)ccc1C(=O)N1CCCC1c1nc(-c2ccccc2)no1 (stereo not given)
4,747 s,Cc1cccc2nc(-c3ccc(N(C)C)cc3)c(Nc3ccc4c(c3)OCO4)n12
5,846 s,COc1ccc(CNC(=O)C2CCN(C(=O)N3CCOc4ccc(Cl)cc43)CC2)cc1
6,1160 s,CC1CCC(NC(=O)c2nnn(Cc3cccc(F)c3)c2-n2cccc2)CC1 (stereo not given)
7,783 s,COc1cc2c(cc1OC)C(C(=O)Nc1ccc3c(c1)OCCO3)C(c1cccs1)N(C)C2=O (stereo not given)
8,749 s,CCc1ccc(CNC(=O)C2CCN(Cc3cn(C)c4ccc(OC)cc34)CC2)cc1
9,775 s,O=C(Cn1nc(C(=O)N2CCCC2)c2ccccc21)NCCc1cccs1
10,686 s,COc1ccc(Cl)cc1S(=O)(=O)NCC1CCN(C(=O)c2ccccc2F)CC1
11,626 s,Cc1ccc(NC(=O)C2CCN(C(=O)c3ncn4c3COC(c3ccccc3)C4)CC2)cc1 (stereo not given)
12,709 s,Cc1cccc2nnc(N3CCC(C(=O)NCC4CCCCC4)CC3)n12
13,891 s,O=C(C1CCC1)N1CC(c2nc(-c3ccc(F)cc3)no2)C2(CCOCC2)C1 (stereo not given)
14,677 s,Cc1cc(C(=O)N2CCCC2)c2cc(Br)ccc2n1
15,834 s,O=C(c1cc(F)ccc1Cl)N1CCN(c2ncccc2-c2nnc(C3CC3)o2)CC1
16,721 s,CC1=C(c2ccccc2)S(=O)(=O)N=C1N1CCCN(C(=O)c2sccc2C)CC1
17,641 s,COC(=O)CC(=O)Nc1cc2c(cc1N1CCCCC1)n(C)c(=O)n2C
18,737 s,COC(=O)c1ncn2c1C(=O)N(Cc1ccccc1F)C(C)(C(=O)NC1CCCC1)C2 (stereo not given)
19,764 s,O=C(Nc1cc(-c2ccccc2)nn1CCO)c1ccc2nsnc2c1
20,953 s,COC(=O)c1ccc(-c2nc3cnccn3c2Nc2ccc(Cl)cc2)cc1
21,678 s,CCCCn1c(CN2CCOCC2)nc2cc(NC(=O)c3cccs3)ccc21
22,698 s,Cn1nc(C(=O)N2CC(N(C3CCOCC3)S(C)(=O)=O)C2)c2ccccc21
